# Molecular target: PDE5 enzyme isolated from human platelets (Homo sapiens (Human), UniProt O76074)
# Assay: PDE5 assay (Example 109), formation of 5′GMP from cGMP, SPA;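 note: tritiated 5′GMP counted by scintillation after SPA bead capture, enzyme reaction run 60 min at 22 °C, basal control is the mixture without enzyme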
# Conditions: for % inhibition at 5.0E−09 M: percent inhibition of control enzyme activity at 5.0E−09 M, assay of Example 109
# Method: Evaluation of the effects of compounds of the present invention on the activity of the human phosphodiesterase-5 quantified by measuring the formation of 5′GMP from cGMP using PDE5 enzyme isolated from human platelets.
# Thereafter, the reaction is initiated by addition of the enzyme and the mixture is incubated for 60 min at 22° C.
# For basal control measurements, the enzyme is omitted from the reaction mixture. Following incubation SPA beads are added. After 20 min at 22° C. under shaking, the amount of [3H]5′GMP is quantified with a scintillation counter (Topcount, Packard).
# The standard inhibitory reference compound is dipyridamole, which is tested in each experiment at several concentrations to obtain an inhibition curve from which its IC50 value is calculated.
SMILES,IC50 [nM],% inhibition at 5.0E−09 M [%]
"CCCOc1ccc(S(=O)(=O)N2CCN(CCO[N+](=O)[O-])CC2)cc1-c1nc2c(CCC)c(/C=N/O)n(CC)c2c(=O)[nH]1 [Compound 1a, (E)-2-(4-((3-(5-ethyl-6-((hydroxyimino)methyl)-4-oxo-7-propyl-4,5-dihydro-3H-pyrrolo[3,2-d]pyrimidin-2-yl)-4-propoxyphenyl)sulfonyl)piperazin-1-yl)ethyl nitrate]",12,20.7
"CCCOc1ccc(S(=O)(=O)N2CCC(CCCO[N+](=O)[O-])CC2)cc1-c1nc2c(CCC)cn(CC)c2c(=O)[nH]1 [Compound 1d, 3-(1-((3-(5-ethyl-4-oxo-7-propyl-4,5-dihydro-3H-pyrrolo[3,2-d]pyrimidin-2-yl)-4-propoxyphenyl)sulfonyl)piperidin-4-yl)propyl nitrate]",> 10,13.4
"CCCc1c(/C=N/O)n(C)c2c(=O)[nH]c(-c3cc(S(=O)(=O)N4CCC(CCO[N+](=O)[O-])CC4)ccc3OCC)nc12 [Compound 2a, (E)-2-(1-((4-ethoxy-3-(6-((hydroxyimino)methyl)-5-methyl-4-oxo-7-propyl-4,5-dihydro-3H-pyrrolo[3,2-d]pyrimidin-2-yl)phenyl)sulfonyl)piperidin-4-yl)ethyl nitrate]",2,13.4
"CCCc1cn(C)c2c(=O)[nH]c(-c3cc(S(=O)(=O)N4CCN(CCCO[N+](=O)[O-])CC4)ccc3OCC)nc12 [Compound 2b, 3-(4-((4-ethoxy-3-(5-methyl-4-oxo-7-propyl-4,5-dihydro-3H-pyrrolo[3,2-d]pyrimidin-2-yl)phenyl)sulfonyl)piperazin-1-yl)propyl nitrate]",2,18.2
"CCCc1cn(C)c2c(=O)[nH]c(-c3cc(S(=O)(=O)N4CCN(CCO[N+](=O)[O-])CC4)ccc3OCC)nc12 [Compound 2d, 2-(4-((4-ethoxy-3-(5-methyl-4-oxo-7-propyl-4,5-dihydro-3H-pyrrolo[3,2-d]pyrimidin-2-yl)phenyl)sulfonyl)piperazin-1-yl)ethyl nitrate]",1.2,57.8
"CCCOc1ccc(S(=O)(=O)N2CCC(CCO[N+](=O)[O-])CC2)cc1-c1nc2c(CCC)cn(C)c2c(=O)[nH]1 [Compound 3a, 2-(1-((3-(5-methyl-4-oxo-7-propyl-4,5-dihydro-3H-pyrrolo[3,2-d]pyrimidin-2-yl)-4-propoxyphenyl)sulfonyl)piperidin-4-yl)ethyl nitrate]",–,6.5
"CCCOc1ccc(S(=O)(=O)N2CCC(CCO)CC2)cc1-c1nc2c(CCC)c(CO)n(CC)c2c(=O)[nH]1 [Compound 6, 5-ethyl-2-(5-((4-(2-hydroxyethyl)piperidin-1-yl)sulfonyl)-2-propoxyphenyl)-6-(hydroxymethyl)-7-propyl-3,5-dihydro-4H-pyrrolo[3,2-d]pyrimidin-4-one]",2.4,–
"CCCOc1ccc(S(=O)(=O)N2CCC(CCO)CC2)cc1-c1nc2c(CCC)c(/C=N/O)n(CC)c2c(=O)[nH]1 [Compound 8, (E)-5-ethyl-2-(5-((4-(2-hydroxyethyl)piperidin-1-yl)sulfonyl)-2-propoxyphenyl)-4-oxo-7-propyl-4,5-dihydro-3H-pyrrolo[3,2-d]pyrimidine-6-carbaldehyde oxime]",2.7,71.2
"CCCOc1ccc(S(=O)(=O)N2CCC(CCCO)CC2)cc1-c1nc2c(CCC)cn(CC)c2c(=O)[nH]1 [Compound 15, 5-ethyl-2-(5-((4-(3-hydroxypropyl)piperidin-1-yl)sulfonyl)-2-propoxyphenyl)-7-propyl-3,5-dihydro-4H-pyrrolo[3,2-d]pyrimidin-4-one]",1.8,50.3
"CCCc1c(/C=N/O)n(C)c2c(=O)[nH]c(-c3cc(S(=O)(=O)N4CCC(CCO)CC4)ccc3OCC)nc12 [Compound 17, (E)-2-(2-ethoxy-5-((4-(2-hydroxyethyl)piperidin-1-yl)sulfonyl)phenyl)-5-methyl-4-oxo-7-propyl-4,5-dihydro-3H-pyrrolo[3,2-d]pyrimidine-6-carbaldehyde oxime]",–,33.2

# From patent publication US11155558B2, “Dual mode of action soluble guanylate cyclase activators and phosphodiesterase inhibitors and uses thereof” (TOPADUR PHARMA AG, priority 2017, dated 2021)
